Assay results as given in PMC9388736, “Unexpected kinetically controlled organoselenium-based isomaleimide: X-ray structure, hirshfeld surface analysis, 3D energy framework approach, and density functional theory calculation” (Frontiers in Chemistry, 2022).

How the values were obtained:
[1] = test system: 158N cells; assay: H2-DCFDA assay of ROS levels by flow cytometry; type: cell-based, Murine; details: Mus musculus, ROS level, mean ± SD, * P < 0.05 vs DMSO; for activity at 50 µM: compound at 50 µM, read-out: H2-DCFDA assay (% of control), C3 (50 µM); for activity at 10 µM: compound at 10 µM, read-out: H2-DCFDA assay (% of control), C1 (10 µM); for activity at 20 µM: compound at 20 µM, read-out: H2-DCFDA assay (% of control), C2 (20 µM)
Procedure: The antiproliferative activities of OSe compounds 2, 3, and 4 were assessed against two oligodendrocyte cell lines, namely, 158 N and 158 JP, by the M.T.T. assay using 7-ketocholesterol as reference control (Supporting info, Supplementary Table S1) ([Vejux et al., 2005]; [Nury et al., 2014]). The redox profile of the compounds was evaluated using the H2-DCFDA assay, and their antiapoptotic potential was also assessed by flow cytometry ([Wilhelm et al., 2009]; [Karlsson et al., 2010]; [Shaaban et al., 2018]). ROS overproduction and O2^•− and were detected with H2-DCFDA assay. Cultured cells were treated with trypsin re-suspended in PBS (10^6 cells/mL) and kept in the dark for half hour at 37 °C with H2-DCFDA at 10 μM and cells were analyzed by flow cytometry. The green fluorescence of 2’,7’- dichlorofluorescein resulting from the oxidation of H2-DCFDA was analyzed by flow cytometry and collected through a 520/10-nm band pass filter. Flomax (Partec) or FlowJo (Tree Star Inc.) software were used for the data analysis.

[2] = in vitro; type: cell-based, Murine; details: mouse
Procedure: (§1) The antiproliferative activities of OSe compounds 2, 3, and 4 were assessed against two oligodendrocyte cell lines, namely, 158 N and 158 JP, by the M.T.T. assay using 7-ketocholesterol as reference control (Supporting info, Supplementary Table S1) ([Vejux et al., 2005]; [Nury et al., 2014]). The redox profile of the compounds was evaluated using the H2-DCFDA assay, and their antiapoptotic potential was also assessed by flow cytometry ([Wilhelm et al., 2009]; [Karlsson et al., 2010]; [Shaaban et al., 2018]). Murine oligodendrocytes ([…] and 158JP) were seeded at 240,000 cells per 24-well plates and were grown using the Dulbecco's Modified Eagle Medium supplemented with penicillin antibiotics (1% v/v, streptomycin) and fetal bovine serum (5% v/v) and kept at 37 °C in atmosphere containing 5% CO2. The concentration of 7kc and vitamin E, and the time of treatment were chosen based on data obtained on 7kc treated […] cells. Organoselenium compounds were prepared in DMSO and then diluted with DMEM up to 1 mM. The MTT assay was carried out on […] and 158JP cells after one day of incubation with 7kc (50μM)/different concentrations (0, 1, 10, 20, 50 and 100 μM) of the organic selenides. In live cells, the MTT is reduced to formazan by the succinate dehydrogenase mitochondrial enzyme. The microplate reader Tecan Sunrise (Tecan, Lyon, France) was used for the reading of the plates at 570 nm. The IC50 values and the maximum concentrations without toxicity were estimated for each of the compounds from the respective dose-response curves.

[3] = test system: 158N cells; assay: in vitro; type: cell-based, Murine; details: for IC50: mouse, 1 day
Procedure: as §1

[4] = test system: 158JP cells; assay: in vitro; type: cell-based, Murine; details: for IC50: mouse, 1 day
Procedure: as §1

[5] = test system: 158N cells; assay: Antiapoptotic effect: Sub-G1 peak by flow cytometry, PI staining, 7kc as apoptosis stimulator; type: cell-based, Murine; details: 158N cells stained with P.I., 7kc (50 μM) 24 hours, compound at 50, 10, 5 and 1 μM
Procedure: Furthermore, the antiapoptotic activities of compounds 2, 3, and 4 were also evaluated by flow cytometry in 158N cells stained with P.I. using 7Kc as apoptosis stimulator and the positive reference (Supporting info, Supplementary Figure S1). […] The N-maleanilic acid 3 amphiphilic characters favor its crossing through the cell membrane and, therefore, its better activity.
The analysis of the cell cycle can reveal a Sub-G1 peak, which is representative of apoptotic cells. Cell cycle analysis was detected on 158N cells stained with Propidium Iodide (PI). Flow cytometric analyses were measured on a Galaxy flow cytometer. Cells were prepared by re-suspension in cold ethanol (80%, −20 °C) for 2 hrs.Cells were then washed withphosphate buffer, and re-suspended in phosphate buffer (300 μL) containing PI (80 μg/mL) and RNase (200 μg/mL) and kept for 1 h at 37°C.PBS 2 mL was then added, and Fluorescence of propidium iodide was recorded using a 590 ± 10 nm band filter. The percentage of cells in different cell cycle phase was manually estimated.
Figure S1. Anti-apoptotic effect of the organoselenium derivative 3 on oligodendrocytes. The anti-apoptotic effect was measured by cytometry using propidium iodide. […]

SMILES	activity at 50 µM [1] [%]	IC50 at 1 day ([2]; Cytotoxicity assay IC50, 158JP) [µM]	IC50 at 1 day ([2]; Cytotoxicity assay IC50, 158N) [µM]	melting point [°C]	activity at 10 µM [1] [%]	activity at 20 µM [1] [%]	IC50 [3] [µM]	IC50 [4] [µM]	formation of SubG1 peak (antiapoptotic activity, in words) [5]	cytotoxicity (in words) [3]	cytotoxicity (in words) [4]
CC(C)CCC[C@@H](C)[C@H]1CC[C@H]2[C@@H]3C(=O)C=C4C[C@@H](O)CC[C@]4(C)[C@H]3CC[C@]12C [7kc, 7-ketocholesterol, reference compound]	48 ± 2	74	37								
Nc1ccc([Se]Cc2ccc(Br)cc2)cc1 [Compound 2, 4-((4-bromobenzyl)selanyl)aniline]	48 ± 2	≥ 100	≥ 100	156 to 158	36 ± 8	41 ± 2	> 100	> 100			
O=C(O)C=CC(=O)Nc1ccc([Se]Cc2ccc(Br)cc2)cc1 [Compound 3, 4-((4-((4-bromobenzyl)selanyl)phenyl)amino)-4-oxobut-2-enoic acid]	31 ± 20	50	29	215 to 217	42 ± 10	36 ± 20			lowered, in a concentration-dependent manner, the formation of SubG1 peak	moderate-low cytotoxicity	moderate-low cytotoxicity
O=C1C=CC(=Nc2ccc([Se]Cc3ccc(Br)cc3)cc2)O1 [Compound 4]	11 ± 4	≥ 100	≥ 100	185 to 187	7 ± 4	8 ± 4	> 100	> 100			
